Data taken from the NIST ThermoML archive (doi:10.1016/j.jct.2018.04.014).

Assays:
[1] = xn = mol fraction of the nth substance listed; details: 93.4 kPa, Liquid, x2 = 0.059; for viscosity: Concentric cylinders viscometry; for mass density: Vibrating tube method
[2] = Liquid; for viscosity / mass density: 93.4 kPa; for viscosity: Concentric cylinders viscometry; for mass density: Vibrating tube method; for vapor or sublimation pressure: Closed cell (Static) method

C=CCn1cc[n+](C)c1.[Cl-] [1-allyl-3-methylimidazolium chloride] + O
[1]
Details | mass density [kg/m3] | viscosity [mPa·s]
323.15 K | 1132.7 | 212
333.15 K | 1127.1 | 115
343.15 K | 1121.5 | 68.7
353.15 K | 1116 | 44
363.15 K | 1110.5 | 30
373.15 K | 1105.2 | 21.4

C[S+](C)[O-] [dimethyl sulfoxide]
[2]
Details | mass density [kg/m3] | vapor or sublimation pressure [kPa] | viscosity [mPa·s]
293.15 K | 1101.2 | – | 2.26
303.15 K | 1091.2 | – | 1.85
313.15 K | 1081.1 | – | 1.56
323.15 K | 1071.1 | – | 1.33
333.15 K | 1061.2 | – | 1.16
343.15 K | 1051.3 | – | 1.02
353.1 K | – | 2 | –
353.15 K | 1041.1 | – | 0.905
363.1 K | – | 3.2 | –
363.15 K | 1031.3 | – | 0.815
373.1 K | – | 5 | –
373.15 K | 1021.4 | – | 0.741
383.1 K | – | 7.6 | –
393.1 K | – | 11.2 | –
403.1 K | – | 16 | –
413.1 K | – | 22.7 | –
423.1 K | – | 31.6 | –
433.1 K | – | 43.2 | –
